Target: T1, Human SST5 somatostatin receptor (SSTR5) (Homo sapiens, UniProt P35346)
T1 construct: expressed in transfected cells; host or cells: HEK-293 EBNA
Assay: Filter plate assay for SST5 receptor, displacement of [125I]SST-14
Assay type: binding
Experimental: Receptor membrane preparations containing the desired cloned receptor (for example cloned human somatostatin receptor subtype 5, SSTR5) and radio-labeled ligand (for example 3-[^125I]iodotyrosyl^11 Somatostatin-14)) were diluted at the concentration required for testing and according to the specific parameters associated with the selected receptor-ligand combination, including receptor Bmax, ligand Kd and any other parameters necessary to optimize the experimental conditions. When tested for competition activity to the reference ligand, “compound 1” was mixed with membrane suspension and the radiolabeled reference ligand (with or without an excess of cold ligand to the receptor for determination of non-specific binding) and incubated at the temperature required by internal standard operating procedures. Following incubation, the binding reaction was stopped by the addition of ice-cold washing buffer and filtered on appropriate filters, which are then counted. Data analysis and curve-fitting was performed with XLfit (IDBS).
10 mM solutions of test compounds in 100% DMSO were prepared. ˜160 μl was used for each dilution (20 μl/well in triplicate).
A 1.25 mM assay stock was prepared by making a 1:8 dilution of the 10 mM solution. (To 30 μL of the 10 mM solution was added 210 μL milli-Q H2O. A 1:5 dilution series in milli-Q H2O was then prepared.
Assays were performed in triplicate at each concentration within the 1:5 dilution series: 250 μM, 50 μM, 10 μM, […], 0.4 μM, 0.08 μM, 0.016 μM, 0.0032 μM, etc. (for SST4 assay) and 125 μM, 10 μM, 2 μM, 1 μM, 0.5 μM, etc (for SST5 assay).
Human SST5 somatostatin receptor was transfected into HEK-293 EBNA cells. Membranes were suspended in assay buffer (50 mM Tris-HCl, 1 mM EGTA, 5 mM MgCl2, 10% sucrose, pH 7.5).
After thawing the frozen receptor preparation rapidly, receptors were diluted with binding buffer, homogenized, and kept on ice. • 1. Use Multiscreen glass fiber filter plates (Millipore, Cat No MAFCNOB10) precoated with o.5% PEI for ˜2 hr at 4° C. Before use add 200 μl/well assay buffer and filter using Multiscreen Separation System. • 2. Incubate 5.5 μg of membranes (40 μl of a 1:40 dilution), buffer and [^125I]SST-14 (4 nM, ˜80 000 cpm, 2000 Ci/mmol) in a total volume of 200 μl for 60 min at 25° C. […] Prepare serial dilutions (1:5) of compounds, as described above and instead of adding SST-14 in well, add 20 μl of compounds (Table 1). • 3. Filter using Multiscreen Separation System with 5×0.2 ml ice-cold Assay buffer. • 4. Remove the plastic underdrain and dry plate in oven for 1 hr at 40° C. • 5. Seal tape to the bottom of the plate. • 6. Add 50 μl/well scintillant (Supermix, Wallac, Cat No 1200-439). • 7. Seal and count in the BJET, program 2.
In primary screening experiments compounds were tested in duplicate for a particular concentration.

T1 sequence (P35346 whole entry): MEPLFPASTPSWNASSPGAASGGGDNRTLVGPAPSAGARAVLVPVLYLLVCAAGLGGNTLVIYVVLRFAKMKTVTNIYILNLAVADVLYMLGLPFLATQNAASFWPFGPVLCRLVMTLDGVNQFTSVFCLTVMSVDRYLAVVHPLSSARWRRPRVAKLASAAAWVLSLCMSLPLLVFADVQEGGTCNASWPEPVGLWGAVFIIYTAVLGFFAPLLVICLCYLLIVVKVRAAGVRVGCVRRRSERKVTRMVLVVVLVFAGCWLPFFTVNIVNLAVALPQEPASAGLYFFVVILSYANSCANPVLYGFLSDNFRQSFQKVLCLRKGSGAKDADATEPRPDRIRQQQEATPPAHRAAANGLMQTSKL

Compound	SSTR5 Inhib 0.5 uM % (inhibition of binding of SST-14 to SSTR5)	SSTR5 Inhib 10 uM % (inhibition of binding of SST-14 to SSTR5)
COC[C@H]1OC(OCc2ccc3ccccc3c2)[C@H](NC(=O)CCCNC(=N)N)[C@H](OCc2ccc3ccccc3c2)[C@@H]1O (some centres unmarked) [Compound 60]	57%	90%
COC1C(O)C(COCc2ccc(-c3ccccc3)cc2)OC(OCc2ccc(Cl)cc2)C1NC(=O)CCCN (centres unmarked) [Compound 40]	66%	95%
COC[C@H]1OC(OCCc2ccccc2)[C@H](NC(=O)CCCN)[C@@H](OCc2ccc(-c3ccccc3)cc2)[C@@H]1O (some centres unmarked) [Compound 65]	61%	90%
COC[C@H]1OC(OCc2ccc(-c3ccccc3)cc2)[C@H](NC(=O)CCCNC(=N)N)[C@@H](OCc2ccc(-c3ccccc3)cc2)[C@@H]1O (some centres unmarked) [Compound 77]	50%	88%
COC[C@H]1OC(OCc2ccc3ccccc3c2)[C@H](NC(=O)CNC(=N)N)[C@@H](OCc2ccc(-c3ccccc3)cc2)[C@@H]1O (some centres unmarked) [Compound 88]	63%	86%
COC[C@H]1OC(OCc2ccc(Cl)cc2)[C@H](NC(=O)CCCNC(=N)N)[C@H](OCc2ccccc2)[C@@H]1O (some centres unmarked) [Compound 176]	37%	71%
COC[C@H]1OC(OCc2ccc3ccccc3c2)[C@H](NC(=O)CCNC(=N)N)[C@@H](OCc2ccccc2)[C@@H]1O (some centres unmarked) [Compound 170]	29%	72%
COC[C@H]1OC(OCc2ccccc2)[C@H](NC(=O)CCCNC(=N)N)[C@H](OCc2ccc(Cl)cc2)[C@@H]1O (some centres unmarked) [Compound 138]	39%	79%
COC[C@H]1OC(OCc2ccccc2)[C@H](NC(=O)CCN)[C@H](OCc2ccc(Cl)cc2)[C@@H]1O (some centres unmarked) [Compound 22]	80%	96%
CO[C@H]1[C@H](O)[C@@H](COCc2ccc(Cl)cc2)OC(OCc2ccc(Cl)cc2)[C@@H]1NC(=O)CCNC(=N)N (some centres unmarked) [Compound 152]	47%	76%
COC1C(O)C(COCc2ccc(Cl)cc2)OC(OCc2ccc(-c3ccccc3)cc2)C1NC(=O)CCNC(=N)N (centres unmarked) [Compound 78]	43%	88%
COC[C@H]1OC(OCCc2ccccc2)[C@H](NC(=O)CCN)[C@H](OCc2ccccc2)[C@@H]1O (some centres unmarked) [Compound 106]	53%	83%
COC[C@H]1OC(OCc2ccc3ccccc3c2)[C@H](NC(=O)CCCN)[C@H](OCc2ccccc2)[C@@H]1O (some centres unmarked) [Compound 92]	52%	86%
COC[C@H]1OC(OCc2ccc(Cl)cc2)[C@H](NC(=O)CCCN)[C@H](OCc2ccc(Cl)cc2)[C@@H]1O (some centres unmarked) [Compound 41]	83%	94%
COC[C@H]1OC(OCc2ccccc2)[C@H](NC(=O)CCN)[C@H](OCc2ccccc2)[C@@H]1O (some centres unmarked) [Compound 163]	34%	73%
CO[C@@H]1[C@H](O)[C@@H](COCc2ccc3ccccc3c2)OC(OCc2ccc(Cl)cc2)[C@@H]1NC(=O)C1CCCN(C(=N)N)C1 (some centres unmarked) [Compound 69]	67%	89%
COC[C@H]1OC(OCc2ccc(-c3ccccc3)cc2)[C@H](NC(=O)CCNC(=N)N)[C@@H](OCc2ccc(Cl)cc2)[C@@H]1O (some centres unmarked) [Compound 108]	47%	83%
COC[C@H]1OC(OCc2ccc3ccccc3c2)[C@H](NC(=O)CCCN)[C@@H](OCc2ccccc2)[C@@H]1O (some centres unmarked) [Compound 68]	46%	89%
COC[C@H]1OC(OCc2ccc3ccccc3c2)[C@H](NC(=O)CCCN)[C@@H](OCc2cccc(O)c2)[C@@H]1O (some centres unmarked) [Compound 82]	48%	87%
COC1C(O)C(COCc2ccc3ccccc3c2)OC(OCc2ccc3ccccc3c2)C1NC(=O)CCNC(=N)N (centres unmarked) [Compound 115]	50%	82%
COC[C@H]1OC(OCc2ccccc2)[C@H](NC(=O)CCN)[C@H](OCc2ccc3ccccc3c2)[C@@H]1O (some centres unmarked) [Compound 37]	81%	95%
COC[C@H]1OC(OCc2ccc(-c3ccccc3)cc2)[C@H](NC(=O)CCCN)[C@@H](OCc2ccc3ccccc3c2)[C@@H]1O (some centres unmarked) [Compound 38]	79%	95%

Next, values leading:

SSTR5 Inhib 0.5 uM % (inhibition of binding of SST-14 to SSTR5)	SSTR5 Inhib 10 uM % (inhibition of binding of SST-14 to SSTR5)	Compound
55%	79%	COC1C(O)C(COCc2ccc(Cl)cc2)OC(OCc2ccc3ccccc3c2)C1NC(=O)CCCNC(=N)N (centres unmarked) [Compound 134]
32%	81%	CO[C@H]1[C@H](O)[C@@H](COCc2ccc3ccccc3c2)OC(OCc2ccc(Cl)cc2)[C@@H]1NC(=O)CCCN (some centres unmarked) [Compound 121]
60%	95%	COC[C@H]1OC(OCc2ccc3ccccc3c2)[C@H](NC(=O)CCNC(=N)N)[C@H](OCc2ccc(Cl)cc2)[C@@H]1O (some centres unmarked) [Compound 35]
34%	80%	CSC1O[C@H](COCc2ccc(Cl)cc2)[C@@H](O)[C@@H](OCc2ccc3ccccc3c2)[C@H]1NC(=O)CCNC(=N)N (some centres unmarked) [Compound 125]
36%	75%	CSC1O[C@H](COCc2ccc3ccccc3c2)[C@@H](O)[C@@H](OCc2ccc(Cl)cc2)[C@H]1NC(=O)CCN (some centres unmarked) [Compound 158]
34%	76%	CSC1O[C@H](COCc2ccc(Cl)cc2)[C@@H](O)[C@@H](OCc2ccc3ccccc3c2)[C@H]1NC(=O)CCCN (some centres unmarked) [Compound 153]
57%	90%	COC[C@H]1OC(OCc2ccc3ccccc3c2)[C@H](NC(=O)CCCNC(=N)N)[C@H](OCc2ccccc2)[C@@H]1O (some centres unmarked) [Compound 64]
47%	84%	COC[C@H]1OC(OCc2ccc3ccccc3c2)[C@H](NC(=O)CCCNC(=N)N)[C@@H](OCc2ccc3ccccc3c2)[C@@H]1O (some centres unmarked) [Compound 104]
45%	79%	COC[C@H]1OC(OCc2ccc3ccccc3c2)[C@H](NC(=O)CCCNC(=N)N)[C@@H](OCc2ccccc2)[C@@H]1O (some centres unmarked) [Compound 135]
61%	89%	CSC1O[C@H](COCc2ccc(-c3ccccc3)cc2)[C@@H](O)[C@@H](OCc2ccc3ccccc3c2)[C@H]1NC(=O)CCN (some centres unmarked) [Compound 66]
42%	82%	CSC1O[C@H](COCc2ccc3ccccc3c2)[C@@H](O)[C@@H](OCc2ccc(Cl)cc2)[C@H]1NC(=O)CNC(=N)N (some centres unmarked) [Compound 116]
60%	92%	CSC1O[C@H](COCc2ccc(Cl)cc2)[C@@H](O)[C@@H](OCc2ccc3ccccc3c2)[C@H]1NC(=O)CCCNC(=N)N (some centres unmarked) [Compound 49]
